Test results published in publication PMC3433420 (PLoS ONE, 2012).
Residues, ends and D or L forms follow the SMILES beside them.

Tests used:
SH2 and PTB domains [1] = molecular target: T1, SH2 and PTB domains (Homo sapiens, UniProt P20936); assay: In-house protein microarrays (with or without 5 mM DTT), protein named per line; format: binding
T1 construct: thioredoxin; made in house; host or cells: BL21(DE3)pLysS E. coli
T1 sequence (P20936 1-1047): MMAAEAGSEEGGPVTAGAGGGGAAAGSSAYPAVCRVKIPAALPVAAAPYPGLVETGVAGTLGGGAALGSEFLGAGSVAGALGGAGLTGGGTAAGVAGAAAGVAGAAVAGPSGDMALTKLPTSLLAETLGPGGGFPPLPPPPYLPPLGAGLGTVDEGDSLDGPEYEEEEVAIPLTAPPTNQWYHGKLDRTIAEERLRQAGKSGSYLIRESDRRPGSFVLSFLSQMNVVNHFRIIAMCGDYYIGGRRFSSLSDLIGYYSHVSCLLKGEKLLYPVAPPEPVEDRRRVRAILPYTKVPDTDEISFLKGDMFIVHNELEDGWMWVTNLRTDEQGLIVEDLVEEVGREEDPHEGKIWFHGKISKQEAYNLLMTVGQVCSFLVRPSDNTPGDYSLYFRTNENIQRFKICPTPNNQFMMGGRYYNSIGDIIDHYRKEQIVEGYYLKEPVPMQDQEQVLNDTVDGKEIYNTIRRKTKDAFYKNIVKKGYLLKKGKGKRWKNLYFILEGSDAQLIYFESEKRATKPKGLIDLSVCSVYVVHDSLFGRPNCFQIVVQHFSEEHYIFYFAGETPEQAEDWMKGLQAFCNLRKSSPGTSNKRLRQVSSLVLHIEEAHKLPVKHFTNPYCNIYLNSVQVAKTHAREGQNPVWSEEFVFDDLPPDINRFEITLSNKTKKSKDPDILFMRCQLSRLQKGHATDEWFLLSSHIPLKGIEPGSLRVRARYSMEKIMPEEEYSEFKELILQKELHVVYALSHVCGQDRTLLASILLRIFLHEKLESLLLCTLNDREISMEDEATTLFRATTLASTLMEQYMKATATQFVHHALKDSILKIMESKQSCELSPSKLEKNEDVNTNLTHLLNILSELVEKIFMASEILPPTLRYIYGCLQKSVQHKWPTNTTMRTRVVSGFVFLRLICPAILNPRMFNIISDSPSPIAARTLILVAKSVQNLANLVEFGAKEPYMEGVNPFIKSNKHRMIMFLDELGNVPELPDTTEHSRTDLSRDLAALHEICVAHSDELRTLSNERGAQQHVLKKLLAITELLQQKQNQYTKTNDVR
Method in brief: (§1)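 KD values come from rhodamine fluorescence of duplicate spots after subtraction of a thioredoxin control. Domains were printed at ~40 µM on aldehyde slides, blocked 1 h at room temperature in pH 7.8 HEPES/KCl buffer with 5 mM DTT and 1% BSA, then peptide-probed.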

SH2 and PTB domains [2] = molecular target: T2, SH2 and PTB domains (Homo sapiens, UniProt P52735); assay: as above; format: binding; conditions: protein VAV2
T2 construct: thioredoxin; made in house; host or cells: BL21(DE3)pLysS E. coli
T2 sequence (P52735 1-878): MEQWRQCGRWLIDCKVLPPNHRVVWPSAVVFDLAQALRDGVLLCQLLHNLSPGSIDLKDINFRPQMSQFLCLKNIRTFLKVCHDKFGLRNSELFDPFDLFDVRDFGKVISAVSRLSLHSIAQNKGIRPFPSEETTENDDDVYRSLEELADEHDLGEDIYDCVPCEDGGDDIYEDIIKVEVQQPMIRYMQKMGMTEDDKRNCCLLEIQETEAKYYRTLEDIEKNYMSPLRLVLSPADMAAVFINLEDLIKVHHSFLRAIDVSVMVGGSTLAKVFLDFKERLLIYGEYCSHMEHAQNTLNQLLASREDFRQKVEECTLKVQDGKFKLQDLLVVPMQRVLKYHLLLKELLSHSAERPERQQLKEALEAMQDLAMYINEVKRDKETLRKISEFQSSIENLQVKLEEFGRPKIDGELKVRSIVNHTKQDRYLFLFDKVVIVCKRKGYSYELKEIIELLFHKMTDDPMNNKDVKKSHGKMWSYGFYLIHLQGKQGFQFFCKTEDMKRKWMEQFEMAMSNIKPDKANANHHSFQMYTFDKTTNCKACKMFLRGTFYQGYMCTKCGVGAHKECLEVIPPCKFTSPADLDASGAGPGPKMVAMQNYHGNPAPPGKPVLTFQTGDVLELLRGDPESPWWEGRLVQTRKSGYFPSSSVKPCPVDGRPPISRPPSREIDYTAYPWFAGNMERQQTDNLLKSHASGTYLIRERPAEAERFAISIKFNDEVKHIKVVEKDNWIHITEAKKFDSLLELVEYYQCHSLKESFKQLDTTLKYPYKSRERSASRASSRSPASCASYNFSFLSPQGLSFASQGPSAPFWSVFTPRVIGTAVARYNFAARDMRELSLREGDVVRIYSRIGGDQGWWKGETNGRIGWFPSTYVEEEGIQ
Method in brief: as §1

[3] = protein RASA1-NC, PM assay replicate # 39337, array fabrication # 39329

SMILES | Kd (SH2 and PTB domains [1]; protein RASA1-N, PM assay replicate # 39307, array fabrication # 39286) [nM] | Kd (SH2 and PTB domains [1]; [3]) [nM] | Kd (SH2 and PTB domains [2]; PM assay replicate # 39307, array fabrication # 39286) [nM] | Kd (SH2 and PTB domains [1]; protein RASA1-C, PM assay replicate # 39337, array fabrication # 39329) [nM] | Kd (SH2 and PTB domains [1]; protein RASA1-N, PM assay replicate # 39336, array fabrication # 39329) [nM] | Kd (SH2 and PTB domains [1]; protein RASA1-N, PM assay replicate # 39337, array fabrication # 39329) [nM] | Kd (SH2 and PTB domains [1]; protein RASA1-NC, PM assay replicate # 39336, array fabrication # 39329) [nM] | Kd (SH2 and PTB domains [1]; protein RASA1-NC, PM assay replicate # 39603, array fabrication # 39392) [nM] | Kd (SH2 and PTB domains [2]; PM assay replicate # 39336, array fabrication # 39329) [nM] | Kd (SH2 and PTB domains [2]; PM assay replicate # 39337, array fabrication # 39329) [nM]
CCN(CC)c1ccc2c(-c3ccc(C(=O)N[C@@H](CC(N)=O)C(=O)NCC(=O)N4CCC[C@H]4C(=O)N4CCC[C@H]4C(=O)N[C@@H](CCCCN)C(=O)N[C@@H](C)C(=O)N[C@@H](CCC(=O)O)C(=O)N[C@@H](CC(=O)O)C(=O)N[C@@H](CCC(=O)O)C(=O)N[C@@H](Cc4ccc(OP(=O)(O)O)cc4)C(=O)N[C@H](C(=O)N[C@@H](CC(N)=O)C(=O)N[C@@H](CCC(=O)O)C(=O)N4CCC[C@H]4C(=O)N[C@@H](CC(C)C)C(=O)N[C@@H](Cc4ccc(O)cc4)C(=O)N[C@@H](CC(C)C)C(=O)N[C@@H](CC(=O)O)C(=O)O)C(C)C)cc3C(=O)[O-])c3ccc(=[N+](CC)CC)cc-3oc2c1 [ErbB4 1202 (18-mer)] (HELM PEPTIDE1{[CCN(CC)c1ccc2c(-c3ccc(C(=O)[*:2])cc3C(=O)[O-])c3ccc(=[N+](CC)CC)cc-3oc2c1].N.G.P.P.K.A.E.D.E.[O=C([C@H](Cc1ccc(OP(=O)(O)O)cc1)N[*:1])[*:2]].V.N.E.P.L.Y.L.D}$$$$V2.0) | 660 | 8560 | 9500 | – | – | – | – | – | – | –
CC(C)C[C@H](NC(=O)[C@@H]1CCCN1C(=O)[C@H](C)NC(=O)[C@@H](NC(=O)[C@H](Cc1ccc(OP(=O)(O)O)cc1)NC(=O)CNC(=O)[C@H](CC(=O)O)NC(=O)[C@@H](NC(=O)[C@@H](N)CCC(=O)O)[C@@H](C)O)C(C)C)C(=O)N[C@H](C(=O)N[C@@H](CS)C(=O)N[C@@H](CO)C(=O)N[C@@H](CC(=O)O)C(=O)O)[C@@H](C)O [ErbB2 pY1127] | – | 30 | – | 1210 | 590 | 110 | 120 | 60 | 1590 | 170
